Earlier results, collected in patent US20160213705A1, “METHOD TO TREAT ONYCHOMYCOSIS BY HYDROXYPROPYL CHITOSAN” (POLICHEM S.A., priority 2013, published 2016).
Several values for one entry are separate records, joined by “and”; a condition that tells them apart may be missing. Equal values may be shown once.

Legend:
onychomycosis [1] = conditions: topical; according to the different vehicles used
onychomycosis [2] = conditions: oral route

SMILES | cure rate (onychomycosis [1]) | complete cure, proportion of patients (onychomycosis [2]) [%]
Cc1cc(C2CCCCC2)n(O)c(=O)c1 [ciclopirox] | 12.7% and 5.8% | –
CN(C/C=C/C#CC(C)(C)C)Cc1cccc2ccccc12 [terbinafine] | – | 38
